In publication PMC4674756, “NMR structure and function of Helicoverpa armigera sterol carrier protein-2, an important insecticidal target from the cotton bollworm” (Scientific Reports, 2015):

Tests used:
[1] = test system: Helicoverpa armigera larvae; experiment: Cholesterol levels in fat body of larvae treated with SCP-2 inhibitors; format: in vivo; conditions: fat body dissected at 5th instar
Procedure: To investigate the effects of SCPI suppression on cholesterol absorption and accumulation in the fat body, in vivo experiments were conducted. The inhibitory effects of SCPIs on cholesterol uptake were tested at the early stages of 3rd and 4th instar larvae. H. armigera larvae were treated with SCPI-1 and mangostin. Because the fat body of insects is the main tissues of cholesterol storage, the fat bodies of the treated larvae were dissected at 5th instar and the concentration of cholesterol in the fat body was measured. […] Similarly, for the mangostin treatment group, there was a 2-fold decrease in the cholesterol levels (p = 0.05) (Fig. 9B 3rd) when the treatment started at 3rd instar stadium. […]
Figure 9 The levels of cholesterol in Helicoverpa armigera larvae treated by SCP-2 inhibitors. The cholesterol levels in the fat body of Helicoverpa armigera larvae which were treated with two inhibitors (AeSCPI-1 and mangostin) were determined. […] The concentration of cholesterol and total protein from each sample were measured. […] Larvae were treated and samples were measured in the same way as AeSCPI-1. […]
The H.armigera larvae were reared according to previous methods. […] Because the fat body of insects is the main tissue of cholesterol storage, the fat bodies of the treated larvae were dissected at 5th instar and the concentration of cholesterol in the fat body was measured. […]

HaSCP-2 = HaSCP-2 (Helicoverpa armigera, UniProt K7NSY9); experiment: biochemical
HaSCP-2, sequence (K7NSY9 entry or part of it): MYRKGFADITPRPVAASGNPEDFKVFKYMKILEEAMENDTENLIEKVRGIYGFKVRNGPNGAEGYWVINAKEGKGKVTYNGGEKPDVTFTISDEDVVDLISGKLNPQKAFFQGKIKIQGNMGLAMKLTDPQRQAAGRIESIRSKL
Procedure: In the presence of each SCPI with an increasing concentrations (0–10 μM), HaSCP-2 (with final concentration of 5 μM) was incubated with NBD-cholesterol (with final concentration of 1.25 μM) in 100 μl of 10 mM KHPO4 buffer (pH 7.5) at 25 °C. Mixture samples were added into 96-well plates and fluorescence intensity was measured on the microplate reader (GeminiXPS, Molecular Devices). Excitation was at 485 nm and emission was measured at 530 nm. The results are analyzed from three repeated experiments with standard deviations. All the data were processed using a single site competition, non-linear regression model in the GraphPad PRISM software version 4.0 (GraphPad). The 50% effective concentration (EC50) was obtained using the equation 2:

[2] = molecular target: truncated HaSCP-2 (trHaSCP-2) (Helicoverpa armigera, UniProt K7NSY9); experiment: NBD-cholesterol binding assay, truncated (wild type) HaSCP-2; conditions: NBD-cholesterol 0.25 μM, protein 25 nM to 15 μM, one site binding non-linear regression, R^2 = 0.99
truncated HaSCP-2 (trHaSCP-2), sequence (K7NSY9 entry or part of it): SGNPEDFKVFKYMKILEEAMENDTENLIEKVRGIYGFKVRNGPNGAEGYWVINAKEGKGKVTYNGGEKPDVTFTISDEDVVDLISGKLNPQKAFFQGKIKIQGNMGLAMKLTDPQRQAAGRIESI
Procedure: (§1) NBD-cholesterol binding assays were performed to investigate the biological function of HaSCP-2 in this study. Both the recombinant full length and trHaSCP-2 were examined for NBD-cholesterol binding (Kd). Glutathione S-transferase (GST) was used as a negative control as before. The final concentration of NBD-cholesterol was kept constant at 0.25 μM and the concentration of full length or truncated HaSCP-2 was tested in a range from 25 nM to 15 μM. The increasing concentration of full length or truncated HaSCP-2 led to the increase in the fluorescence emission value of NBD-cholesterol. […] The binding curves were analyzed by using the one site binding non-linear regression model adopted in the similar studies. […] It is quite likely that the N-terminal and C-terminal residues that were deleted may not be necessary for the ligand binding activity of HaSCP-2, as shown that no significant differences in binding affinity between the truncated HaSCP-2 and full length HaSCP-2.
(§2) HaSCP-2 binding activity to cholesterol was determined by using NBD-cholesterol binding assays. […] Then, the samples were applied to measure the fluorescence signals using a fluorescence microplate reader (GeminiXPS, Molecular Devices). Fluorescence was excited at 485 nm and the emission was measured at 530 nm. […]

full length HaSCP-2 = full length HaSCP-2 (Helicoverpa armigera, UniProt K7NSY9); experiment: NBD-cholesterol binding assay, full length (deduced) HaSCP-2; conditions: NBD-cholesterol 0.25 μM, protein 25 nM to 15 μM, one site binding non-linear regression, R^2 = 0.99
full length HaSCP-2, sequence (K7NSY9 entry or part of it): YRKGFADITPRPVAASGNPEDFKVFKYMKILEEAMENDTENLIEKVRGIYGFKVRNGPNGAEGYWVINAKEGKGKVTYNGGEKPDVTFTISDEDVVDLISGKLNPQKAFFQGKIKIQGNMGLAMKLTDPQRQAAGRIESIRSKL
Procedure: as §1, §2

HaSCP-2 F110W = HaSCP-2 F110W (Helicoverpa armigera, UniProt K7NSY9, F500W); format: binding; conditions: mutant F110W; P vs WT 0.019
HaSCP-2 F110W, sequence (K7NSY9 entry or part of it F500W): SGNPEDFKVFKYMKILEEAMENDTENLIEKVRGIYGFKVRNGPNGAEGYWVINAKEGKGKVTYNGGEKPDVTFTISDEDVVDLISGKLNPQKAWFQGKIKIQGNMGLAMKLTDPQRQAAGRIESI
From the text: (§3) In order to further confirm the key residues of HaSCP-2 that are involved in the ligand binding, based on the HaSCP-2 structure and docking simulation results we selected several predicted amino acid residues as shown in Table 3 (cholesterol and β-sitosterol) to perform single site mutation experiments to investigate the mechanism of ligand binding in HaSCP-2.
(§4) Single site amino acid mutations in the pGEX-KG/trHaSCP-2 were introduced using the QuikChange II Site-Directed Mutagenesis kit (Stratagene, La Jolla, CA). The Y51, F53, F89, I91, F110, I117 and Q131 sites of HaSCP-2 were selected to perform mutation.
(§5) HaSCP-2 binding activity to cholesterol was determined by using NBD-cholesterol binding assays. In truncation experiments, deduced HaSCP-2 and truncated HaSCP-2 were used for NBD-cholesterol binding assay; while as in mutation experiment, truncated HaSCP-2 (defined as wild type HaSCP-2) and mutated HaSCP-2 were assayed. HaSCP-2 was diluted in 10 mM KHPO4 buffer (pH 7.4) to a serial of varied concentrations […], respectively.

HaSCP-2 F53A = HaSCP-2 F53A (Helicoverpa armigera, UniProt K7NSY9, F443A); format: binding; conditions: mutant F53A; P vs WT 0.031
HaSCP-2 F53A, sequence (K7NSY9 entry or part of it F443A): as the sequence (K7NSY9 entry or part of it F500W) above, with F37A, W94F counted along it
From the text: as §3, §4, §5

HaSCP-2 F53W = HaSCP-2 F53W (Helicoverpa armigera, UniProt K7NSY9, F443W); format: binding; conditions: mutant F53W; P vs WT 0.026
HaSCP-2 F53W, sequence (K7NSY9 entry or part of it F443W): as the sequence (K7NSY9 entry or part of it F500W) above, with F37W, W94F counted along it
From the text: as §3, §4, §5

HaSCP-2 F89A = HaSCP-2 F89A (Helicoverpa armigera, UniProt K7NSY9, F479A); format: binding; conditions: mutant F89A; P vs WT 0.038
HaSCP-2 F89A, sequence (K7NSY9 entry or part of it F479A): as the sequence (K7NSY9 entry or part of it F500W) above, with F73A, W94F counted along it
From the text: as §3, §4, §5

HaSCP-2 I117M = HaSCP-2 I117M (Helicoverpa armigera, UniProt K7NSY9, I507M); format: binding; conditions: mutant I117M; P vs WT 0.043
HaSCP-2 I117M, sequence (K7NSY9 entry or part of it I507M): as the sequence (K7NSY9 entry or part of it F500W) above, with W94F, I101M counted along it
From the text: as §3, §4, §5

HaSCP-2 Q131A = HaSCP-2 Q131A (Helicoverpa armigera, UniProt K7NSY9, Q521A); format: binding; conditions: mutant Q131A; P vs WT 0.034
HaSCP-2 Q131A, sequence (K7NSY9 entry or part of it Q521A): as the sequence (K7NSY9 entry or part of it F500W) above, with W94F, Q115A counted along it
From the text: as §3, §4, §5

HaSCP-2 Y51A = HaSCP-2 Y51A (Helicoverpa armigera, UniProt K7NSY9, Y441A); format: binding; conditions: mutant Y51A; P vs WT 0.023
HaSCP-2 Y51A, sequence (K7NSY9 entry or part of it Y441A): as the sequence (K7NSY9 entry or part of it F500W) above, with Y35A, W94F counted along it
From the text: as §3, §4, §5

SMILES | decrease in the cholesterol levels in the fat body ([1]; treatment started at 3rd instar stadium via diet, p = 0.05) [fold] | EC50 (HaSCP-2) [µM] | cholesterol levels in the fat body vs control group ([1]; larvae treated at 3rd instar stage via diet, p = 0.023) | Kd [2] [µM] | Kd (full length HaSCP-2) [µM] | Kd (HaSCP-2 F110W) [µM] | Kd (HaSCP-2 F53A) [µM] | Kd (HaSCP-2 F53W) [µM] | Kd (HaSCP-2 F89A) [µM] | Kd (HaSCP-2 I117M) [µM] | Kd (HaSCP-2 Q131A) [µM] | Kd (HaSCP-2 Y51A) [µM]
COc1c(O)cc2oc3cc(O)c(CC=C(C)C)c(O)c3c(=O)c2c1CC=C(C)C [α-mangostin, 1,3,6-trihydroxy-7-methoxy-2,8-bis(3-methylbut-2-enyl)-9H-xanthen-9-one] | 2 | 0.73 | – | – | – | – | – | – | – | – | – | –
Br.CC(=O)Nc1ccc(Nc2nc(-c3ccc(Cl)c(Cl)c3)cs2)cc1 [AeSCPI-1, N-(4-{[4-(3,4-dichlorophenyl)-1,3-thiazol-2-yl]amino}phenyl) acetamide hydrobromide] | – | 0.76 | significantly lower | – | – | – | – | – | – | – | – | –
C[C@H](CNc1ccc([N+](=O)[O-])c2nonc12)[C@H]1CC[C@H]2[C@@H]3CC=C4C[C@@H](O)CC[C@]4(C)[C@H]3CC[C@]12C [NBD-cholesterol] | – | – | – | 2.45 | 2.8 | 3.24 | 3.07 | 3.41 | 3.27 | 1.8 | 3.77 | 2.65
